ChEMBL document CHEMBL1201862, “PubChem BioAssay data set” (2004)
Calls of active or inactive are those of the source.

Legend:
[1] = target: T1, Calpain-2 catalytic subunit (Sus scrofa, UniProt P43367); assay: pig calpain II inhibitor potency, dose response, biochemical, fluorogenic peptide substrate (AID 1420); assay type: functional
T1 sequence (P43367 whole entry): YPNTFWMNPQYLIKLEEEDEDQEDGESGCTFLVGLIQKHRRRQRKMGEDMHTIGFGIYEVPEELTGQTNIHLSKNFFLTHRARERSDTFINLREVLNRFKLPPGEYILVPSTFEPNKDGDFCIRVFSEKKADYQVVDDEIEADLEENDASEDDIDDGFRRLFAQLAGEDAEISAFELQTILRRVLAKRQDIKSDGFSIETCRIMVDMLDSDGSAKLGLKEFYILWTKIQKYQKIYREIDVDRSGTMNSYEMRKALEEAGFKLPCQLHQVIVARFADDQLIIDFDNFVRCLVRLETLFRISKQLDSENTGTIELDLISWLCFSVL

[2] = target: Heat shock protein HSP 90-alpha (Homo sapiens, UniProt P07900); assay type: functional, organism-based
[3] = target: T2, Heat shock factor protein 1 (Mus musculus, UniProt P38532); assay: HSF1 potentiators in luciferase reporter cells, confirmation, cell-based, NIH3T3, luminescence, dose retest (AID 435004); assay type: functional;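 also: stress induced by proteasome inhibitor MG132 added 30 min after compound; luciferase reporter driven by HSF1 response element in NIH3T3 cells; actives raise luminescence as potentiators of the MG132 stress response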
T2 sequence (P38532 whole entry): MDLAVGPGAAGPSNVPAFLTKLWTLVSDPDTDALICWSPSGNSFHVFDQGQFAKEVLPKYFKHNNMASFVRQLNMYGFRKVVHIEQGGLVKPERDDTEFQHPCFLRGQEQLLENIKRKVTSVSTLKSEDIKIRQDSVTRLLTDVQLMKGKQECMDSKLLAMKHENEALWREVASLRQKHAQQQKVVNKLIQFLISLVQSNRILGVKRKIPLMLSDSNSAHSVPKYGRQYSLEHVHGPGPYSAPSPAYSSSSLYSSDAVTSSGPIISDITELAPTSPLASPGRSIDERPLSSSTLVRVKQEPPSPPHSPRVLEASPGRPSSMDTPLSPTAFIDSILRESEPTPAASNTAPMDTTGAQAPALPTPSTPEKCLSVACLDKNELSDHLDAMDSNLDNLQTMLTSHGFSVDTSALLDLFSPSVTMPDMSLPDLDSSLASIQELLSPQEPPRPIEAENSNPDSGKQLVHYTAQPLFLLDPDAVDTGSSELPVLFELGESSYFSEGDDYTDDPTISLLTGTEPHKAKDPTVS

HEK293 [4] = assay: inhibitors of LMP1-driven NF-kB reporter, dose response, cell-based, HEK293, luciferase, cherry-pick (AID 588343); assay type: functional; conditions: Homo sapiens
Paired box protein Pax-8 = Paired box protein Pax-8 (Homo sapiens, UniProt Q06710); assay: inhibitors of PAX8-driven TPO luciferase reporter, dose response, RMG-I cells, cherry-pick (AID 687027); assay type: functional, cell-based;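 also: luciferase reporter driven by Pax8 target thyroperoxidase promoter measured by SteadyGlo luminescence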
Cytochrome P450 2C9 = Cytochrome P450 2C9 (Homo sapiens, UniProt P11712)
[5] = inhibitors of HIV Env-driven cell fusion, dose response, cherry-pick (AID 652057); assay type: functional, cell-based
Cytochrome P450 2C19 = Cytochrome P450 2C19 (Homo sapiens, UniProt P33261); assay: Cytochrome panel assay with activity outcomes. Panel member name: p450-cyp2c19 Compounds with AC50 equal or less than 10 uM are considered active; assay type: functional
Cytochrome P450 3A4 = Cytochrome P450 3A4 (Homo sapiens, UniProt P08684);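 also: CYP3A4 tested as one member of a cytochrome P450 panel screen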
Cytochrome P450 2D6 = Cytochrome P450 2D6 (Homo sapiens, UniProt P10635);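 also: CYP2D6 member of a cytochrome P450 panel assay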
[6] = inhibitors of intracellular T. cruzi replication, confirmation, NIH3T3 host cells, beta-gal luminescence (AID 2044); assay type: functional, cell-based;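 also: intracellular parasites grown in NIH/3T3 mouse fibroblasts as host cells; luminescent beta-galactosidase reporter signal from transgenic T. cruzi replicating inside host cells; inhibitors lower the luminescence signal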
[7] = cytotoxicity toward NIH3T3 fibroblasts, dose response, counter-screen, cell-based, ATP luminescence, mouse fibroblasts (AID 2010); assay type: functional;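 also: cells exposed to compound for about 90 hours before reading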
HEK293 [8] = assay: NOD1 signaling inhibitors, primary screen, cell-based, luminescence, uHTS (AID 1578); assay type: functional; conditions: Homo sapiens
HEK293 [9] = assay: cells; assay type: functional, cell-based; conditions: Homo sapiens
HEK293 [10] = assay: cells; assay type: functional, cell-based; conditions: Homo sapiens; remark: listed apart in the source
[11] = target: Nucleotide-binding oligomerization domain-containing protein 2 (Homo sapiens, UniProt Q9HC29); assay: NOD2 signaling inhibitors, cell-based, luminescence, uHTS, HEK293 (AID 1566); assay type: functional
HEK293 [12] = assay: NOD2 signaling inhibitors in MDP-stimulated cells, cell-based, uHTS, luminescence (AID 2001); assay type: functional; conditions: Homo sapiens
HEK293 [13] = assay: cells; assay type: functional, cell-based; conditions: Homo sapiens; remark: listed apart in the source
[14] = Luminescence Cell-Based Dose Retest to Confirm Inhibitors of Cancer Stem Cells. [Related pubchem assays (depositor defined):AID2717, AID2721]; assay type: functional, Homo sapiens; conditions: Homo sapiens
[15] = target: G-protein coupled receptor 55 (Homo sapiens, UniProt Q9Y2T6); assay: GPR55 antagonists blocking LPI-driven arrestin recruitment, primary screen, imaging, U2OS, beta-arrestin-GFP, LPI agonist (AID 2013); assay type: functional;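 also: antagonist potency measured as reduced agonist-driven arrestin aggregation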
Protein skinhead-1 = target: T3, Protein skinhead-1 (Caenorhabditis elegans, UniProt P34707); assay type: functional
T3 sequence (P34707 whole entry): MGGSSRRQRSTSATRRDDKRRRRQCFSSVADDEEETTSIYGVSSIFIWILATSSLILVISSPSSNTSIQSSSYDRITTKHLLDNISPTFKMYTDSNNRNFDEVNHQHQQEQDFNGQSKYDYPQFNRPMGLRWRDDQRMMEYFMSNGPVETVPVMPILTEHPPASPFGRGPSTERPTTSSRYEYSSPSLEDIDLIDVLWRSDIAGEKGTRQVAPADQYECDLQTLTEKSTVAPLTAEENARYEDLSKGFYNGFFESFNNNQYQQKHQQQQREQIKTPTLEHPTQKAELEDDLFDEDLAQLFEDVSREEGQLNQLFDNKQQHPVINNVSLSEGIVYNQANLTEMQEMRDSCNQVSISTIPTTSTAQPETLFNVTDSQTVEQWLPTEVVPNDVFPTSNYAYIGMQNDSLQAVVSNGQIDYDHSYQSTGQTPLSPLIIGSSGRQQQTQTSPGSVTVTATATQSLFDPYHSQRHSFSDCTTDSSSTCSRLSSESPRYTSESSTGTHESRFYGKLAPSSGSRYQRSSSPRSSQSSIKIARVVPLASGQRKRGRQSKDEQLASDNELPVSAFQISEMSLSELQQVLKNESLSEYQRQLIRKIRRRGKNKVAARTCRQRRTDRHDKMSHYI

[16] = Luminescence Cell-Based Dose Response HTS to Identify Activators of Luciferase Translation or Activity in H4 […] Cells. [Related pubchem assays: 1829 (Project Summary), 1814 (Primary HTS)]; assay type: functional
[17] = target: T4, Replicative DNA helicase DnaB (Mycobacterium tuberculosis, UniProt P9WMR3); assay: DnaB intein splicing inhibitors, dose response, biochemical, cell-free fluorescence (AID 449749); assay type: functional
T4 sequence (P9WMR3 whole entry): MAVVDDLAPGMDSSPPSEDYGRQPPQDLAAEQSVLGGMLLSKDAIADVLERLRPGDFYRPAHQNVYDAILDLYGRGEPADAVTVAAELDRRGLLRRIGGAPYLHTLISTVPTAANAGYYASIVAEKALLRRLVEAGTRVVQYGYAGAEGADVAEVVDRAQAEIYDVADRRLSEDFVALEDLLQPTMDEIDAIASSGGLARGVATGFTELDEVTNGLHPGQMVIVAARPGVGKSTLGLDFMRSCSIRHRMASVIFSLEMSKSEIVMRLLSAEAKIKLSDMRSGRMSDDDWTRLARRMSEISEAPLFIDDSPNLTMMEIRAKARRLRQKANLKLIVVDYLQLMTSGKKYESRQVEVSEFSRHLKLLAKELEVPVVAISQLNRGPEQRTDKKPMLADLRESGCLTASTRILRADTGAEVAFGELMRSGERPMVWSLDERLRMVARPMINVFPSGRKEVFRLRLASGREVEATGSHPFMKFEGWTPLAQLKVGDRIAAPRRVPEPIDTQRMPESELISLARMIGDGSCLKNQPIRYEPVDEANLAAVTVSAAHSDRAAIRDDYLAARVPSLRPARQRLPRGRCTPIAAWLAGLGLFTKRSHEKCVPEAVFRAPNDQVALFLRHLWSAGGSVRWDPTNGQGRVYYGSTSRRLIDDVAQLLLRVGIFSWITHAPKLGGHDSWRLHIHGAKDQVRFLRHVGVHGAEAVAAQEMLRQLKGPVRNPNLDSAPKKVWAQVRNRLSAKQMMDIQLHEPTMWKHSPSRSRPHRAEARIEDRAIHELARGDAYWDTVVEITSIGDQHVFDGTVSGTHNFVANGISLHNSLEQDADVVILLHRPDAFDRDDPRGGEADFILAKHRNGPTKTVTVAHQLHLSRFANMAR

Protein RecA = target: T5, Protein RecA (Mycobacterium tuberculosis, UniProt P9WHJ3); assay: Fluorescence Cell-Free Homogeneous Dose Retest to Identify Inhibitors of RecA-Intein Splicing Activity. [Related pubchem assays (depositor defined):AID2097, AID2223, AID489010, AID492950]; assay type: functional
T5 sequence (P9WHJ3 whole entry): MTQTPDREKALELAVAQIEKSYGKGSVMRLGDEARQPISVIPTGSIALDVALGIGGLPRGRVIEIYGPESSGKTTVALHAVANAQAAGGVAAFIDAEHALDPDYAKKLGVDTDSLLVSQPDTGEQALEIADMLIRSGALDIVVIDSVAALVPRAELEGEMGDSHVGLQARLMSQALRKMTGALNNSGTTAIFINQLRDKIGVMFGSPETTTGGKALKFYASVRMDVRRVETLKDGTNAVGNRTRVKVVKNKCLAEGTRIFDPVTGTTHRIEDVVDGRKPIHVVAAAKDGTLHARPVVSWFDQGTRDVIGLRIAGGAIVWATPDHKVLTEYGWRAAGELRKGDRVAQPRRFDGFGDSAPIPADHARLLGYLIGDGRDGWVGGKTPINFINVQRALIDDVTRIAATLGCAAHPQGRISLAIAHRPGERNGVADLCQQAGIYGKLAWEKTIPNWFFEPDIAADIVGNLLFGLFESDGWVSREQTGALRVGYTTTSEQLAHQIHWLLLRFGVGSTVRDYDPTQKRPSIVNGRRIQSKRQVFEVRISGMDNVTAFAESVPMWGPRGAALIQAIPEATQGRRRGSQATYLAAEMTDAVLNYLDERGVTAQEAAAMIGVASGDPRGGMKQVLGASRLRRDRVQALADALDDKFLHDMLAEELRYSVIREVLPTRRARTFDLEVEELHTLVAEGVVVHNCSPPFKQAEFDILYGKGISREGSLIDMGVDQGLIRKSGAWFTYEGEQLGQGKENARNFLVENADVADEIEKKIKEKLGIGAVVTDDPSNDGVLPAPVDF

SN12K1 = assay: cells; assay type: functional; conditions: Homo sapiens

Sequence of Cytochrome P450 2C9 (P11712 whole entry, the tested form may be a part): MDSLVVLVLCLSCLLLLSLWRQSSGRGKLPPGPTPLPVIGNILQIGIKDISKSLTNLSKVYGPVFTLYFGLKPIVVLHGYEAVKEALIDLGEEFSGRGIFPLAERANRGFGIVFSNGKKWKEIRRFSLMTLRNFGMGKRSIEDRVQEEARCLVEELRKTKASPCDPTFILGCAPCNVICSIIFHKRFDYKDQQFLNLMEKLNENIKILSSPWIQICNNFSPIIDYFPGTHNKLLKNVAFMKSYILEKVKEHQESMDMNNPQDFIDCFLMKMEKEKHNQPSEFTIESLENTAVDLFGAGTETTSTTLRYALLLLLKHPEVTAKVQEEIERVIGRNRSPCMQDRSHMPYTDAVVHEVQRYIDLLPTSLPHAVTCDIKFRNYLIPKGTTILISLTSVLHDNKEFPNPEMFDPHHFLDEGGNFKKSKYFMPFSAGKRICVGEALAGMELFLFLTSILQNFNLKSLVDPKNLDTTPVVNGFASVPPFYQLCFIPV
Sequence of Cytochrome P450 2D6 (P10635 whole entry): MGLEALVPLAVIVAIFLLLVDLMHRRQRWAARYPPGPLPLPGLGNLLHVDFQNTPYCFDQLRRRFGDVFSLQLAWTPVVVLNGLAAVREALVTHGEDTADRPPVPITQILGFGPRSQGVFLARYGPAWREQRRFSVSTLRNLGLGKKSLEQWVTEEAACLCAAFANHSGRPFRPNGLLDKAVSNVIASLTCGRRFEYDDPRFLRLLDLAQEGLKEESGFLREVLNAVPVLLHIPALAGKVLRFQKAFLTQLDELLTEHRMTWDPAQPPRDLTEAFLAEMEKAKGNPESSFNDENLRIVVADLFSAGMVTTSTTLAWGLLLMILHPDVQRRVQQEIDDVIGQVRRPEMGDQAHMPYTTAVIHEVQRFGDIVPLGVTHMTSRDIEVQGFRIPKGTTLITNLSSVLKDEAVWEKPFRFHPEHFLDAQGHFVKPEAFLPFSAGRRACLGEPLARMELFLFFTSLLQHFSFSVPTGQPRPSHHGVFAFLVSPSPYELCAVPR
Sequence of Nucleotide-binding oligomerization domain-containing protein 2 (Q9HC29 whole entry, the tested form may be a part): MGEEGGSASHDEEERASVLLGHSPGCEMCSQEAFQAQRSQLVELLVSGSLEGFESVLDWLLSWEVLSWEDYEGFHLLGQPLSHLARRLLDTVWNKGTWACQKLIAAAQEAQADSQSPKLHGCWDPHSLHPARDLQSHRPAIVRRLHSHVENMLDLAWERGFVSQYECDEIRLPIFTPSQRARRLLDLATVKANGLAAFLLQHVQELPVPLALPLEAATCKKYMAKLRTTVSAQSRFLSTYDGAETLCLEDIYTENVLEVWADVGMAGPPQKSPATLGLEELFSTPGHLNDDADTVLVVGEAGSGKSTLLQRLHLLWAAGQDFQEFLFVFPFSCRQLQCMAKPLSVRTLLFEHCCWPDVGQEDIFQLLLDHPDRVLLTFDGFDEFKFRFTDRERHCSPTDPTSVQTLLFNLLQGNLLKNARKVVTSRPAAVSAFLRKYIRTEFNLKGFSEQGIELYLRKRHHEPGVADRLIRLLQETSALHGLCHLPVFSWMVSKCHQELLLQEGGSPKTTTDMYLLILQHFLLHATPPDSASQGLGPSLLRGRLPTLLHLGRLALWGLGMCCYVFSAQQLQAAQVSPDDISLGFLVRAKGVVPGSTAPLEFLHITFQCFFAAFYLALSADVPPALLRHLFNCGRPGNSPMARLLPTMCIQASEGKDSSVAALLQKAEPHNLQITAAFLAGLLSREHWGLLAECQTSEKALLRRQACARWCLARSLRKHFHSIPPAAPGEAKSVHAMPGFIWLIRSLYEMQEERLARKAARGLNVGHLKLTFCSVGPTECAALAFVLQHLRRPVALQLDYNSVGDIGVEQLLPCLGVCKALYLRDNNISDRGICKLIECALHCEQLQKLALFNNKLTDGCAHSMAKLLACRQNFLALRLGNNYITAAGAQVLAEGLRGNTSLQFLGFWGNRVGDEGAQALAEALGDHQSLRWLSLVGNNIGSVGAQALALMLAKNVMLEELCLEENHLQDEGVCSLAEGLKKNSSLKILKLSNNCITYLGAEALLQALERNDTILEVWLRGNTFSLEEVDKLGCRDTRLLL
Sequence of Cytochrome P450 3A4 (P08684 whole entry): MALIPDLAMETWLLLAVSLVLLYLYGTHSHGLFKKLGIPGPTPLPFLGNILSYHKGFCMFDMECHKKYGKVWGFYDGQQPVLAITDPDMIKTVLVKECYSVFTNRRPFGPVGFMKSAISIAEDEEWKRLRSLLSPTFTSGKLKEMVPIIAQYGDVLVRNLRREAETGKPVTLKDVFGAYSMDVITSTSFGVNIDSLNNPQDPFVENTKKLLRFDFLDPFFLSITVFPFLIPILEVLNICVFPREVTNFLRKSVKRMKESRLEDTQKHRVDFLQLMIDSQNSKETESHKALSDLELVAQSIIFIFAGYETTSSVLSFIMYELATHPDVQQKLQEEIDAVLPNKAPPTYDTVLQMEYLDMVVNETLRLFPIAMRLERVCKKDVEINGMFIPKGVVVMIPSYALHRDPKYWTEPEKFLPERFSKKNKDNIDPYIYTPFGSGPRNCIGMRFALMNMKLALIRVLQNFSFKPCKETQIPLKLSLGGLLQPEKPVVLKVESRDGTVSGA
Sequence of Cytochrome P450 2C19 (P33261 whole entry): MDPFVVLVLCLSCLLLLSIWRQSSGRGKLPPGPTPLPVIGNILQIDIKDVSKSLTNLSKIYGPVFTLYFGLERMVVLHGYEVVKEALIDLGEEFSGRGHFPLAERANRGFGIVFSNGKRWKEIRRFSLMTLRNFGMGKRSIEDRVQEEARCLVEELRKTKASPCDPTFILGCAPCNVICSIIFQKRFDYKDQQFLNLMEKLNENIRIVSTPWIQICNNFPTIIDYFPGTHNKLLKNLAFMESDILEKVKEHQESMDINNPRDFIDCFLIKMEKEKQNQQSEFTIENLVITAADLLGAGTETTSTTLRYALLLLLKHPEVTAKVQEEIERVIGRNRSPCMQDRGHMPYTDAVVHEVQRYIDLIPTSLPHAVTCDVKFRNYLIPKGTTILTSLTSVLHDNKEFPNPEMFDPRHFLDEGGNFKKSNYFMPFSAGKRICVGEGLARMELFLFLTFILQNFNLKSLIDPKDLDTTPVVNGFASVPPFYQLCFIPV
Sequence of Paired box protein Pax-8 (Q06710 whole entry): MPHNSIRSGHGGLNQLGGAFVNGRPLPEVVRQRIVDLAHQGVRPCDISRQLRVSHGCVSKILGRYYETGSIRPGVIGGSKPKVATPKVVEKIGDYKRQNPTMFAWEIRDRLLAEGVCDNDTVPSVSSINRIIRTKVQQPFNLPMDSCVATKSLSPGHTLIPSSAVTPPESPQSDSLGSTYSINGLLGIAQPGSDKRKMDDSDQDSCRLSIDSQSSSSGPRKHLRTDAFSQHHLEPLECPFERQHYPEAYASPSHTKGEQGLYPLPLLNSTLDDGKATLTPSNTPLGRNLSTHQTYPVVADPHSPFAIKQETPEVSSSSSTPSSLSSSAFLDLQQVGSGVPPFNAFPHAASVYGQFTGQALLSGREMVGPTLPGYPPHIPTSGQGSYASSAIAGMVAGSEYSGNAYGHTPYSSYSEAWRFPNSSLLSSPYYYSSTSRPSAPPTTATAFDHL
Sequence of G-protein coupled receptor 55 (Q9Y2T6 whole entry): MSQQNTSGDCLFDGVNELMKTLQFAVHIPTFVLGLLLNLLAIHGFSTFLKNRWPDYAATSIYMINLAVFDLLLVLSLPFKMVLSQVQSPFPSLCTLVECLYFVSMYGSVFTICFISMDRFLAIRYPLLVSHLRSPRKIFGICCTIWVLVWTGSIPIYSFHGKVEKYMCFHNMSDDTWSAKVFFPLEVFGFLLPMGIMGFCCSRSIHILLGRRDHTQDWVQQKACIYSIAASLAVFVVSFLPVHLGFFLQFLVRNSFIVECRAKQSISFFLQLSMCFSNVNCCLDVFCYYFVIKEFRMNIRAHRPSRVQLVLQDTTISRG

## Cc1ccc(C(=O)N2CCN(c3ccccc3Cl)CC2)cc1[N+](=O)[O-]
[1]
  IC50: > 50 µM (not active)
[2]
  AC50: 4.18 µM (active)

## Cc1cc(Sc2nnc(N)s2)c2ccccc2n1
[3]
  EC50: 14.6 µM (active)
HEK293 [4]
  AC50: 3.03 µM (active)
Paired box protein Pax-8
  AC50: 4.58 µM (active)

## Cc1ccc(CNC(=O)C2CC(c3ccccc3[N+](=O)[O-])=NO2)o1 (configuration not stated)
Cytochrome P450 2C9
  AC50: inconclusive

## COc1cc(C)nc(N2CCCC(C(=O)Nc3cc(Cl)ccc3OC)C2)n1 (configuration not stated)
Cytochrome P450 2C9
  AC50: inconclusive

## CCCCNC(=O)C[C@H]1C[C@@]2(C(=O)OC)C(=C[C@H](C(C)(C)C)O[C@@H]2C)N(Cc2ccc3c(c2)OCO3)C1=O
[5]
  AC50: 19.8 µM (active)

## C#CCCCO/N=C1/[C@H]2O[C@@H]2[C@@H](O)[C@H]2[C@H]1CCn1c(=O)n(Cc3cc4c(cc3Cl)OCO4)c(=O)n12
Cytochrome P450 2C19
  AC50: inconclusive
Cytochrome P450 2C9
  AC50: inconclusive

## O=C(c1cccc(C(F)(F)F)c1)N1CCC(O)(CS(=O)(=O)Cc2ccccc2)CC1
Cytochrome P450 3A4
  AC50: 3.16 µM (inconclusive)
Cytochrome P450 2C9
  AC50: inconclusive

## O=C(NCCCN1CCOCC1)C1COc2ccccc2O1 (configuration not stated)
Cytochrome P450 2C19; read-out: AC50
  AC50: 17.8 µM (inconclusive)
Cytochrome P450 2D6
  AC50: 7.94 µM (inconclusive)
Cytochrome P450 3A4
  AC50: 14.1 µM (inconclusive)
Cytochrome P450 2C9
  AC50: inconclusive

## O=[N+]([O-])c1ccc(N2CCN(Cc3cccc([N+](=O)[O-])c3)CC2)cc1
HEK293 [4]
  AC50: 52.6 µM (active)

## Nc1nc(-c2ccccc2)c(-c2ccccc2)s1
Cytochrome P450 2D6
  AC50: 15.8 µM (inconclusive)
Cytochrome P450 2C9
  AC50: inconclusive

## O=C(Nc1ccc(Cl)c(Cl)c1)Nc1nc(-c2ccccc2)cs1
[6]
  EC50: 1.52 µM (active)
[7]
  EC50: > 60 µM (not active)
HEK293 [4]
  AC50: 24.9 µM (active)

## Cc1ccc(NC(=O)CSc2ncnc3ccccc23)cc1S(=O)(=O)N1CCCCC1
HEK293 [8]
  EC50: 4.43 µM (active)
HEK293 [9]
  IC50: 1.81 µM (active)
HEK293 [10]
  IC50: 6.83 µM (active)
[11]
  EC50: 4.73 µM (active)
HEK293 [12]
  IC50: 1.73 µM (active)
HEK293 [13]
  IC50: > 20 µM (inactive)

## Cc1ccc(C(=O)NC(=C(Cl)Cl)S(=O)(=O)c2ccc(C)cc2)cc1
HEK293 [8]
  EC50: 2.46 µM (active)
HEK293 [9]
  IC50: 6.28 µM (active)
HEK293 [10]
  IC50: > 20 µM (inactive)
[11]
  EC50: 14.6 µM (active)
HEK293 [12]
  IC50: 5.55 µM (active)
HEK293 [13]
  IC50: > 20 µM (inactive)
[14]
  AC50: 4.39 µM (active)

## CN1/C(=C/C(=O)CSc2ccccc2C(=O)O)C(C)(C)c2ccccc21
[15]
  IC50: 3.44 µM (active)
Protein skinhead-1
  IC50: > 100 µM (inactive)

## COc1ccc(Nc2cnn(-c3nc4ccccc4s3)c(=O)c2Cl)cc1
[16]
  EC50: 0.198 µM (active)
[17]
  AC50: > 380 µM (inactive)
[2]
  AC50: 3.21 µM (active)
Protein RecA
  EC50: 4.01 µM (active)

## C[C@]12CC[C@@H]3c4ccc(OC(=O)N(CCCl)CCCl)cc4CC[C@H]3[C@@H]1CC[C@@H]2O [ESTRAMUSTINE]
SN12K1
  GI50: 0.025 µM (active)
